Assay results as given in ChEMBL document CHEMBL1201862, “PubChem BioAssay data set” (2004).
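Grown in 96-well plates, cells were treated for 48 hours with each compound at five concentrations. Insufficient inhibition: endpoint recorded as highest concentration tested. At the GI50, growth is halved.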 Activity calls are given as the source filed them. Cut-off read from the data, not from the text of the source: active = GI50 up to about 1.1 µM and inactive = higher.

Key:
Assay in all cases: inhibition of tumour cell growth, NCI panel, 48 h
[1] = system: UO-31
[2] = system: COLO 205
[3] = system: 786-0
[4] = system: HT-29
[5] = system: A549
[6] = system: ACHN
[7] = system: EKVX
[8] = system: SNB-78
[9] = system: DLD-1
[10] = system: UACC-257
[11] = system: TK-10
[12] = system: SK-MEL-2
[13] = system: IGROV-1
[14] = system: HOP-92
[15] = system: HOP-18
[16] = system: HCT-116
[17] = system: SK-OV-3
[18] = system: OVCAR-8
[19] = system: CAKI-1
[20] = system: SNB-19
[21] = system: NCI-H522
[22] = system: NCI-H226
[23] = system: K562
[24] = system: SF-539
[25] = system: NCI-H23
[26] = system: SK-MEL-28
[27] = system: NCI-H460
[28] = system: RPMI-8226
[29] = system: SNB-75
[30] = system: OVCAR-4
[31] = system: UACC-62
[32] = system: A498
[33] = system: OVCAR-5
[34] = system: XF498
[35] = system: LXFL 529
[36] = system: MOLT-4
[37] = system: SF-268
[38] = system: RXF 393
[39] = system: HCT-15
[40] = system: Malme-3M
[41] = system: M14
[42] = system: HL-60
[43] = system: SN12C
[44] = system: KM12
[45] = system: KM-20L2
[46] = system: SR
[47] = system: SF-295
[48] = system: DMS-114
[49] = system: HOP-62
[50] = system: U-251
[51] = system: SK-MEL-5
[52] = system: DMS-273
[53] = system: CCRF-CEM
[54] = system: OVCAR-3
[55] = system: M19-MEL
[56] = system: HCC 2998
[57] = system: SW-620
[58] = system: LOX IMVI

Measured: GI50

COc1ccc([C@@H]2CC(=O)N2)cc1
inactive: [1] > 100 µM | [2] > 100 µM | [3] > 100 µM | [4] > 100 µM | [5] > 100 µM | [6] > 100 µM | [7] > 100 µM | [8] > 100 µM | [9] > 100 µM | [10] > 100 µM | [11] > 100 µM | [12] > 100 µM | [13] > 100 µM | [14] > 100 µM | [15] > 100 µM | [16] > 100 µM | [17] > 100 µM | [18] > 100 µM | [19] > 100 µM | [20] > 100 µM | [21] > 100 µM | [22] > 100 µM | [23] > 100 µM | [24] > 100 µM | [25] > 100 µM | [26] > 100 µM | [27] > 100 µM | [28] > 100 µM | [29] > 100 µM | [30] > 100 µM | [31] > 100 µM | [32] > 100 µM | [33] > 100 µM | [34] > 100 µM | [35] > 100 µM | [36] > 100 µM | [37] > 100 µM | [38] > 100 µM | [40] > 100 µM | [41] > 100 µM | [42] > 100 µM | [43] > 100 µM | [44] > 100 µM | [45] > 100 µM | [46] > 100 µM | [47] > 100 µM | [48] > 100 µM | [49] > 100 µM | [50] > 100 µM | [51] > 100 µM | [52] > 100 µM | [53] > 100 µM
> 100 µM: [39]

COP1(=O)CC2C(Cl)(Cl)C2(C)C1 (stereo unspecified)
inactive: [2] > 100 µM | [3] > 100 µM | [4] > 100 µM | [5] > 100 µM | [8] > 100 µM | [9] > 100 µM | [11] > 100 µM | [54] > 100 µM | [13] > 100 µM | [15] > 100 µM | [16] > 100 µM | [17] > 100 µM | [18] > 100 µM | [20] > 100 µM | [21] > 100 µM | [55] > 100 µM | [22] > 100 µM | [23] > 100 µM | [24] > 100 µM | [25] > 100 µM | [56] > 100 µM | [26] > 100 µM | [27] > 100 µM | [28] > 100 µM | [29] > 100 µM | [30] > 100 µM | [31] > 100 µM | [34] > 100 µM | [35] > 100 µM | [36] > 100 µM | [37] > 100 µM | [38] > 100 µM | [57] > 100 µM | [41] > 100 µM | [42] > 100 µM | [58] > 100 µM | [43] > 100 µM | [44] > 100 µM | [45] > 100 µM | [47] > 100 µM | [48] > 100 µM | [49] > 100 µM | [50] > 100 µM | [51] > 100 µM | [52] > 100 µM | [53] > 100 µM

COC(=O)/C=C(\C)CCC1SC1(C)C (stereo unspecified)
inactive: [1] > 100 µM | [2] > 100 µM | [3] > 100 µM | [4] > 100 µM | [5] > 100 µM | [6] > 100 µM | [7] > 100 µM | [8] > 100 µM | [9] > 100 µM | [10] > 100 µM | [11] > 100 µM | [12] > 100 µM | [13] > 100 µM | [15] > 100 µM | [16] > 100 µM | [17] > 100 µM | [18] > 100 µM | [19] > 100 µM | [20] > 100 µM | [21] > 100 µM | [55] > 100 µM | [22] > 100 µM | [23] > 100 µM | [24] > 100 µM | [25] > 100 µM | [56] > 100 µM | [26] > 100 µM | [27] > 100 µM | [28] > 100 µM | [29] > 100 µM | [30] > 100 µM | [31] > 100 µM | [32] > 100 µM | [33] > 100 µM | [34] > 100 µM | [35] > 100 µM | [36] > 100 µM | [37] > 100 µM | [38] > 100 µM | [57] 77.3 µM | [40] > 100 µM | [41] > 100 µM | [42] > 100 µM | [58] > 100 µM | [43] > 100 µM | [44] > 100 µM | [45] > 100 µM | [47] > 100 µM | [48] 91.8 µM | [49] > 100 µM | [50] > 100 µM | [51] > 100 µM | [52] > 100 µM | [53] > 100 µM
> 100 µM: [39]

c1ccc(-c2nc3ccccc3nc2SCc2cccnc2)cc1
inactive: [1] 56.6 µM | [2] > 100 µM | [3] > 100 µM | [4] > 100 µM | [5] > 100 µM | [6] > 100 µM | [7] > 100 µM | [8] > 100 µM | [10] > 100 µM | [54] > 100 µM | [14] > 100 µM | [15] 14.4 µM | [16] > 100 µM | [17] > 100 µM | [18] > 100 µM | [20] > 100 µM | [22] > 100 µM | [23] > 100 µM | [25] > 100 µM | [26] > 100 µM | [28] > 100 µM | [29] > 100 µM | [30] > 100 µM | [34] > 100 µM | [35] > 100 µM | [36] > 100 µM | [37] > 100 µM | [40] > 100 µM | [41] > 100 µM | [42] > 100 µM | [43] > 100 µM | [47] > 100 µM | [48] > 100 µM | [50] > 100 µM | [52] > 100 µM | [53] > 100 µM

CC1OC(=O)N(CCCC=C2SCCCS2)C1=O (stereo unspecified)
> 100 µM: [39]
inactive: [1] > 100 µM | [2] > 100 µM | [3] > 100 µM | [4] > 100 µM | [5] > 100 µM | [6] > 100 µM | [7] > 100 µM | [8] > 100 µM | [10] > 100 µM | [11] > 100 µM | [12] > 100 µM | [54] > 100 µM | [13] > 100 µM | [14] > 100 µM | [15] > 100 µM | [16] > 100 µM | [17] > 100 µM | [18] > 100 µM | [20] > 100 µM | [21] > 100 µM | [55] > 100 µM | [22] > 100 µM | [23] > 100 µM | [24] > 100 µM | [25] > 100 µM | [26] > 100 µM | [27] > 100 µM | [28] > 100 µM | [29] > 100 µM | [30] > 100 µM | [31] > 100 µM | [32] > 100 µM | [33] > 100 µM | [34] > 100 µM | [35] > 100 µM | [36] > 100 µM | [37] > 100 µM | [38] > 100 µM | [57] > 100 µM | [40] > 100 µM | [41] > 100 µM | [58] > 100 µM | [43] > 100 µM | [44] > 100 µM | [45] > 100 µM | [47] > 100 µM | [48] > 100 µM | [50] > 100 µM | [52] > 100 µM | [53] > 100 µM
